The target of the assay is T1, human recombinant ALDH3A1 (Homo sapiens, UniProt P30838).
T1 construct: 6xHis (C); made in house; host or cells: E. coli, with chaperone co-expression (pG-KJE8 plasmid)
T1 sequence (P30838 1-453): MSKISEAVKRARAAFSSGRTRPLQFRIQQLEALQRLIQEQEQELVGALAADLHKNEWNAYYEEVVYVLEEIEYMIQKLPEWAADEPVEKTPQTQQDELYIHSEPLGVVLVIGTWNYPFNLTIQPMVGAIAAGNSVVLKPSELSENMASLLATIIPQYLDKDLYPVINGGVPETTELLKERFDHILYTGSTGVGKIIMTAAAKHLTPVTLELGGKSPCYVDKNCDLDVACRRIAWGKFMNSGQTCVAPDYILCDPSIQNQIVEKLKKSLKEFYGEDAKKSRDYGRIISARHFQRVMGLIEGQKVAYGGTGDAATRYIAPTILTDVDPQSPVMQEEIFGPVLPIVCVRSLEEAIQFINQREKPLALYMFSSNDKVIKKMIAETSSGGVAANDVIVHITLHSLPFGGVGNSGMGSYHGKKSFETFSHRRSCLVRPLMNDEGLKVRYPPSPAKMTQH
Nature of the assay: Peptide ELISA, P1 coated, serially diluted ALDH3A1. The assay is classed as binding. As to the method:
An ELISA with the synthetic peptide P1 was performed as described ([Thermo Scientific, 2010]). P1 (50 μg/mL) diluted in Coating Buffer (0.2 M sodium carbonate/bicarbonate, pH 9.4) was coated overnight at 4°C under agitation. After three washes with TBST (25 mM Tris, 0.15 M sodium chloride, pH 7.2 containing 0.1% Tween 20), the wells were blocked with 300 μL per well with Blocking Buffer (TBST containing 4% w/v BSA) overnight at 4°C under agitation. After another three washes with TBST, 100 μL of 2-fold serial dilutions of ALDH3A1 in Blocking Buffer were added in each well and the plate was incubated for 1 h at RT under gentle agitation. Following four washes with TBST, 100 μL of rabbit anti-ALDH3A1 antibody, diluted 1:1,000 in Blocking Buffer, were added and the plate was incubated for 2 h at RT under gentle agitation. After the plate was washed 4 times with TBST, it was incubated with 100 μL of anti-rabbit IgG horseradish-peroxidase conjugated and diluted 1:5,000 in Blocking Buffer, for 2 h at RT. Then, the plate was washed 6 times with TBST, and 100 μL of ABTS [2,2′-azino-bis(3-ethylbenzothiazoline-6-sulfonic acid)] solution (ready-to-use) were added. After 1 h of incubation in darkness at RT under agitation, the plate was measured at 405 nm, with wavelength correction at 650 nm, using an ELISA plate reader (EnSpire Multimode Plate Reader, Perkin Elmer, Waltham, MA, United States). During wash steps, liquids were dispersed in the sink, the plate was tapped vigorously on a paper towel, refilled with Wash Buffer, and incubated for 5 min at RT under agitation.
Next, peptide ELISA was performed to test whether the synthetic peptide P1 interacts with the hALDH3A1 protein. Specifically, P1 was coated in abundance in a 96-well plate and subsequently, hALDH3A1 was added to each well in serial dilutions. For detecting the putative peptide/ALDH3A1 interaction a rabbit anti-ALDH3A1 antibody along with a secondary horseradish peroxidase-conjugated anti-rabbit antibody were used in a sandwich ELISA. In each step, the excessive, unbound ALDH3A1 or antibody was removed through repetitive washes, while a ready-to-use ABTS solution was used as a colorimetric substrate for detecting the presence of horseradish peroxidase activity.
A general note: An ELISA detects its analyte on a solid surface through an enzyme-linked reagent.

[1] abbreviates: X is log(dilution of ALDH3A1), P1 50 μg/ml coated.

Data on 1 sequence can be found in PMC10067601, “Identification of a peptide ligand for human ALDH3A1 through peptide phage display: Prediction and characterization of protein interaction sites and inhibition of ALDH3A1 enzymatic activity” (Frontiers in Molecular Biosciences, 2023).

Entries after “also recorded” stand apart in the source; their conditions may differ.

In the case of “WPTYVSPFRSPP [P1, …, prevailing 12-mer phage display peptide, synthesised by Genecust]”, under “4PL fit, P1 50 μg/ml coated”, the “Bottom, 95% CI (profile likelihood)” value is listed as -0,6000 to 0,3171; the “HillSlope, 95% CI (profile likelihood)” value was 0,7500 to 2,101; the “LogIC50, 95% CI (profile likelihood)” value is -2,813 to -1,638; the “R squared (4PL fit)” value is given as 0.9777. The “Top, 95% CI (profile likelihood)” value (4PL fit, P1 50 μg/ml coated) is recorded as 0,5633 to 0,6007. Besides, the “Binding of P1 to ALDH3A1” value (P1 50 μg/mL coated, 2-fold serial dilutions of ALDH3A1, 405 nm-650 nm) was “ALDH3A1 dose-dependent increase in absorbance was observed, indicating the specific binding of P1 to ALDH3A1; also recorded: confirmed the interaction of ALDH3A1 with the synthetic peptide P1 in a concentration-dependent manner”. The “Bottom (4PL fit)” value (Sigmoidal, 4PL, X is log(dilution of ALDH3A1), P1 50 μg/ml coated) is reported as 0.2386. Also, under “Sigmoidal, 4PL, X is log(dilution of ALDH3A1), P1 50 μg/ml coated, OD 405nm - 650nm”, the “Top (4PL fit)” value came to 0.5773. Under setting [1], the “HillSlope (4PL fit)” value is given as 1.408, the “LogIC50 (4PL fit)” value is given as -1.813 and the “Span (4PL fit)” value was 0.3387.
